Data on one molecule can be found in patent US7049396B2, “Synthetic peptides that inhibit leukocyte superoxide anion production and/or attract leukocytes” (priority 1995, dated 2006).

Molecules are shown by their SMILES. Converted amounts (≈) assume the structure as drawn. Where a SMILES comes first, the peptide text is derived from it.

For one data set, the system named is E. coli, ATTC 25922. Put plainly: Lawn-spotting antibacterial assay (E. coli). The data set is classed as cell-based, Escherichia coli. Particulars: 5 μl spotted, inactive segments up to 1 mg/ml.
In a further data set the test system is porcine neutrophils. Description: Neutrophil chemotaxis, modified Boyden chamber. The data set is classed as cell-based. Particulars: peptide at 0.05 μM, 30 min. How it is done: Influence of PR-39 on neutrophil chemotaxis. Chemotaxis of porcine neutrophils was measured by the procedure of Salak et al. (1993). Briefly, PR-14, PR15, PR-16, PR-26, or PR-39 (30 μl in Dulbecco's Modified Eagle's medium) were placed in the bottom chamber of a modified Boyden chamber (Neuro Probe, Cabin John, Md.) and porcine neutrophils (50 μl at 5×10^6 cells/ml) were placed in the top chamber. The chambers were incubated at 37° C. for 30 min. Cells that migrated through the porous membrane (pore size 5 μm) were stained using LeukoStat solution and enumerated. Five microscope fields were counted and the cells that migrated through the membrane were standardized to the medium control and referred to as the migration index.

Data set [1] has as its system whole-cell NADPH oxidase activity of porcine peripheral blood neutrophils. Description: Whole-cell O2- production, ferricytochrome c reduction. The data set is classed as cell-based. How it is done:
Regulation of neutrophil O2^− production by PR-26 and PR-39. • (i) O2^− production assays. Whole-cell O2^− production by por-cine peripheral blood neutrophils was determined by the superoxide dismutase-inhibitable reduction of ferricytochrome c as previously described (Shi et al., 1994a). Cell-free O2^− production was measured as previously described (Leto et al., 1991) using 96-well plates and a Molecular Devices Thermomax microplate reader (Menlo Park, Calif.). Reactions (100 μl) contained 10^6 cell equivalents of human neutrophil cytosol and 5×10^5 cell equivalents of deoxycholate-solubilized membranes prepared from human peripheral blood neutrophils. Reaction mixtures contained 50 mM potassium phosphate (pH 7), 0.2 mM acetylated cytochrome c, 4 mM MgCl2, 1 mM EGTA, 10 μM FAD, 1 μM GTP-γS, and 200 μM NADPH. The reactions were initiated by addition of 40 μM arachidonic acid. Control reactions contained 5 μg of superoxide dismutase. Superoxide anion generation was calculated based on superoxide dismutase-inhibitable changes in cytochrome c absorbance observed at 551 nm. The reactions were followed for 20 min. after addition of arachidonic acid, with absorbance readings taken at 1-min. intervals. Maximum rates of superoxide generation were calculated from a linear least squares fit of 10 consecutive 1-min. data points. Determinations were based on reactions performed in duplicate. • (ii) Binding assays. Neutrophils were disrupted by sonication, and unbroken cells, debris, and granules were removed by centrifuigation (13,000×g for 60 min.). Cytosol fractions were prepared by centrifugation (100,000 g for 45 min.) of the supernatants to remove residual membranes. Cytosolic proteins (15 μg in reducing buffer) were separated on a 7.5% SDS PAGE gel, transferred to PVDF membranes, and probed with biotinylated PR-39 (0.3 μM) for 2 hr. Binding between PR-39 and cytosolic proteins were visualized by a chemiluminescent streptavidin alkaline phosphatase system using an Epson scanner (Torrance, Calif.) and the NIH Image program. PR-39 was labeled with biotin hydrazide at the carboxy-terminus (Pierce Chemical Co., Rockford, Ill.) and purified by gel filtration chromatography.

Data set [2] addresses T1, interaction between GST-p47^phox and recombinant p22^phox (Homo sapiens, UniProt P14598).
T1 construct: (GST)-p47^phox-SH3 (residues 151–284) fusion protein; made in house; host or cells: p22phox fragment: baculovirus-infected cells (used as lysate)
Put plainly: Solution binding assay GST-p47phox-SH3 / recombinant p22phox. Particulars: concentrations close to IC50's of the cell-free oxidase assay. The protocol:
Methods for production of the glutathione S-transferase (GST)-p47^phox-SH3 (residues 151–284) fusion protein have been previously described (Leto et al., 1994). For solution binding assays, lysates of recombinant p22^phox protein (residues 127–195) from baculovirus-infected cells (2.5×10^4 cell equivalents per assay) were mixed with peptides and incubated for 1 hr. at 20° C. with 100 μl of GST-p47^phox bound to glutathione-Sepharose beads (15% suspension). Bound proteins were washed three times in 15 volumes of ice-cold 100 mM KCl/3 mM NaCl/3.5 mM MgCl2/0.15 mM phenylmethanesulfonyl fluoride/10 mM Pipes (pH 7.5), eluted with 1% SDS, and analyzed by SDS-PAGE followed by immunoblotting with mouse anti-p22^phox antibody (mAb 449; A. Verhoeven, Central Laboratories of the Netherlands Red Cross). Controls included blotting of recombinant p22^phox lysate (5×10^3 cell equivalents) alone (p22) and bound complexes detected without competing PR peptides (−).

For a further data set, the system named is E. coli, ATCC 25922. Description: Gel-overlay antibacterial assay. The data set is classed as cell-based, Escherichia coli. As to conditions: 10 μg peptide per lane, AU-PAGE gel overlaid with E. coli, 18 hr.
The subject of a further data set is p67^phox. Put plainly: Ligand-blot binding assay with biotinylated PR-39, p67phox. As to conditions: neutrophil cytosolic proteins probed with biotinylated PR-39. The protocol: Regulation of neutrophil O2^− production by PR-26 and PR-39. • (i) O2^− production assays. Whole-cell O2^− production by por-cine peripheral blood neutrophils was determined by the superoxide dismutase-inhibitable reduction of ferricytochrome c as previously described (Shi et al., 1994a). Cell-free O2^− production was measured as previously described (Leto et al., 1991) using 96-well plates and a Molecular Devices Thermomax microplate reader (Menlo Park, Calif.). Reactions (100 μl) contained 10^6 cell equivalents of human neutrophil cytosol and 5×10^5 cell equivalents of deoxycholate-solubilized membranes prepared from human peripheral blood neutrophils. Reaction mixtures contained 50 mM potassium phosphate (pH 7), 0.2 mM acetylated cytochrome c, 4 mM MgCl2, 1 mM EGTA, 10 μM FAD, 1 μM GTP-γS, and 200 μM NADPH. The reactions were initiated by addition of 40 μM arachidonic acid. Control reactions contained 5 μg of superoxide dismutase. Superoxide anion generation was calculated based on superoxide dismutase-inhibitable changes in cytochrome c absorbance observed at 551 nm. The reactions were followed for 20 min. after addition of arachidonic acid, with absorbance readings taken at 1-min. intervals. Maximum rates of superoxide generation were calculated from a linear least squares fit of 10 consecutive 1-min. data points. […]

Another data set relates to S. typhimurium. Description: Postantibiotic effect (PAE). The data set is classed as cell-based, Salmonella typhimurium. As to conditions: 2 hr exposure. The protocol:
(§1) Plates were incubated at 37° C. for 18 hr. […] Viable bacteria were counted. Tests were repeated on three different days. […] The results were expressed as the mean ± standard deviation. […] S. choleraesuis, ATCC 6962 was used in this experiment. […] Slides were stained with LeukoStat solutions (Fisher, Pittsburgh, Pa.). […] At least 200 neutrophils were examined. […] Tests were repeated on three different days. Results were expressed as the mean±standard deviation.

Another data set relates to Salmonella choleraesuis. The data set is classed as cell-based. The protocol:
as §1

The next data set relates to Salmonella typhimurium. Put plainly: MIC/MBC microdilution broth method. The data set is classed as cell-based. As to conditions: Salmonella typhimurium. The protocol: as §1
In general terms: Dilution methods test growth across graded concentrations, often in twofold steps.

The subject of another data set is Streptococcus suis. Put plainly: MIC/MBC microdilution broth method. The data set is classed as cell-based. As to conditions: Streptococcus suis. How it is done:
as §1

The next data set concerns Escherichia coli, 25922. Description: MIC/MBC microdilution broth method. The data set is classed as cell-based. As to conditions: Escherichia coli. The protocol: as §1
Another data set relates to Staphylococcus aureus. Description: MIC/MBC microdilution broth method. The data set is classed as cell-based. Particulars: Staphylococcus aureus. How it is done: as §1

T1 sequence (P14598 151-284): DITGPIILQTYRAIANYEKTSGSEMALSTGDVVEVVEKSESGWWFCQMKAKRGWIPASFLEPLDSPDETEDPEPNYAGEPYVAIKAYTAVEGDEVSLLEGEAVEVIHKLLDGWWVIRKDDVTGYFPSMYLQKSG
Experimental for Escherichia coli, K88: Briefly, 50 μl of twofold serial dilutions (128 to 0.25 μM) of synthetic peptides were dispensed into wells of 96-well tissue culture plates. Bacteria (E. coli, ATCC 25922; E. coli, K88; S. typhimurium, fresh isolate from a dog; Salmonella choleraesuis ATCC 6962; Streptococcus suis, fresh isolate from porcine spleen; and Staphylococcus aureus) from sheep-blood or brain-heart-infusion agar plates were standardized to 0.5 McFarland in demineralized water using a radiometer/sensititre (Chelsea Instrument Ltd., England). The water/bacteria suspension (100 μl) was immediately transferred to 10 ml of cation-adjusted Muller-Hinton broth and 50 μl of the bacterial suspension then were added to each well of the microtiter plate. Plates were incubated for 20 hr. at 37° C. and MICs were determined. Ten microliters of bacterial suspensions in Muller-Hinton broth also were diluted to determine the actual bacterial concentration using standard colony forming unit (CFU) counting. After determination of the MICs, 10 μl of each bacteria-peptide suspension were plated on sheep-blood or brain-heart-infusion agar plates and incubated for 24 hr. at 37° C. to determine the MBCs. MBC was considered that peptide concentration that inhibited 99.9% of the original CFUs (NCCLS, 1990). • (iv) PAE.

Usually MBC stands for the lowest tested concentration that kills the bacteria rather than only halting them. A higher MBC goes with weaker bactericidal potency. The MIC is the smallest concentration in the dilution series that meets the test's criterion for growth inhibition. Read a high MIC as a need for much substance. Consider `CC[C@H](C)[C@H](NC(=O)[C@H](CCCNC(=N)N)NC(=O)[C@@H]1CCCN1C(=O)[C@@H]1CCCN1C(=O)[C@H](CC(C)C)NC(=O)[C@H](CCCNC(=N)N)NC(=O)[C@@H]1CCCN1C(=O)[C@@H]1CCCN1C(=O)[C@H](Cc1ccccc1)NC(=O)[C@H](Cc1ccccc1)NC(=O)[C@@H]1CCCN1C(=O)[C@@H]1CCCN1C(=O)[C@@H]1CCCN1C(=O)[C@H](CCCNC(=N)N)NC(=O)[C@@H]1CCCN1C(=O)[C@H](CCCNC(=N)N)NC(=O)[C@@H]1CCCN1C(=O)[C@H](CC(C)C)NC(=O)[C@H](Cc1ccc(O)cc1)NC(=O)[C@@H]1CCCN1C(=O)[C@@H]1CCCN1C(=O)[C@H](CCCNC(=N)N)NC(=O)[C@@H]1CCCN1C(=O)[C@H](CCCNC(=N)N)NC(=O)[C@H](CCCNC(=N)N)NC(=O)[C@@H](N)CCCNC(=N)N)C(=O)N1CCC[C@H]1C(=O)N1CCC[C@H]1C(=O)NCC(=O)N[C@@H](Cc1ccccc1)C(=O)N1CCC[C@H]1C(=O)N1CCC[C@H]1C(=O)N[C@@H](CCCNC(=N)N)C(=O)N[C@@H](Cc1ccccc1)C(=O)N1CCC[C@H]1C(=O)N1CCC[C@H]1C(=O)N[C@@H](CCCNC(=N)N)C(=O)N[C@@H](Cc1ccccc1)C(=O)N1CCC[C@H]1C(=O)O` [PR-39] (H-RRRPRPPYLPRPRPPPFFPPRLPPRIPPGFPPRFPPRFP-OH; N-terminus and C-terminus assumed), for which the “antibacterial activity (clear zone on bacterial lawn)” value with E. coli, ATTC 25922 was “had antibacterial activity”. The “neutrophil chemotaxis (migration index)” value in the data set on porcine neutrophils is recorded as “chemotactic agents”. The “O2- generation by neutrophils” value is reported as “significant reduction” in [1] (5 μM, incubated at least 45 min. before PMA stimulation) and “did not affect” in data set [1] (20 μM added at the same time as PMA). Besides, the oxidase inhibition in data set [1] (5 μM, longer pre-incubation periods before PMA) is ~70%. The MBC against Escherichia coli, K88 was 4 µM (≈ 18.9 µg/mL); against Salmonella choleraesuis it was 4 µM (≈ 18.9 µg/mL); in the data set with Salmonella typhimurium it was 4 µM (≈ 18.9 µg/mL); in the data set on Streptococcus suis it was >64 µM; against Escherichia coli, 25922, 8 µM (≈ 37.8 µg/mL). The MIC with Escherichia coli, K88 was 2 µM (≈ 9.44 µg/mL); in the data set on Salmonella choleraesuis it was 2 µM (≈ 9.44 µg/mL); in the data set on Salmonella typhimurium, 4 µM (≈ 18.9 µg/mL); with Streptococcus suis, >64 µM; in the data set on Escherichia coli, 25922, 4 µM (≈ 18.9 µg/mL); in the data set with Staphylococcus aureus, >250 µM. Besides, the neutrophil viability result in the data set with neutrophils is “did not affect neutrophil viability”. The “blocking of interaction between GST-p47phox and recombinant p22phox” value in data set [2] is listed as “effectively blocked”. Further, the “antibacterial activity (clear zones on overlaid gel)” value with E. coli, ATCC 25922 is on record as “antibacterial activity”. Moreover, the “binding to p67phox” value with p67^phox is “did not bind”. In addition, the “PAE (growth delay)” value in the data set with S. typhimurium (0.1 MIC) was “slight growth delay”. Also, the PAE entry in the data set with S. typhimurium (1 MIC) and in the data set with S. typhimurium (8 MICs) was “significantly increased” throughout.
